Values quoted from earlier work, collected in US10980856B2, “Composition and method for treating plantar fasciitis in humans” (priority 2017, dated 2021).

What was measured:
[1] = test system: human peripheral blood monocytes; settings: after 40 hours
[2] = test system: Balb/c mice injected with histamine; settings: applied immediately after histamine injection

Structure (SMILES) | superoxide production by agonist-stimulated monocytes (monocytes) | inhibition of lipopolysaccharide-induced production of IL-10 [1] [%] | inhibition of lipopolysaccharide-induced production of TNF-α [1] [%] | inhibition of lipopolysaccharide-induced production of interleukin-1b (IL-1b) [1] [%] | inhibition of lipopolysaccharide-induced production of prostaglandin E2 [1] [%] | histamine-induced skin edema [2]
CC1=CC[C@@H](C(C)(C)O)CC1 [a-terpineol] | suppress |  |  |  |  | 
CC1=CCC(O)(C(C)C)CC1 (stereo not shown) [terpinen-4-ol] | suppress | 50 | 50 | 50 | 30 | reduced
